Assay results as given in US20150190416A1, “FILAGGRIN PRODUCTION PROMOTER, THERAPEUTIC AGENT FOR DISEASES ASSOCIATED WITH REDUCTION IN PRODUCTION OF FILAGGRIN, AND METHOD FOR SCREENING FOR SAID THERAPEUTIC AGENT” (KYOTO UNIVERSITY, priority 2012, published 2015).

What was measured:
GPR142 = assay: Blocking effect by GPR142 RNAi in NHEK cells (Examples 5 and 6); format: cell-based, human; conditions: 1 day; for induction of FLG mRNA expression: dependence on GPR142: GPR142 siRNA, compound 10 nM
Experimental: In this example, it was confirmed that the expression-inducing effects of Compound 1 on GPR142 mRNA and FLG mRNA in NHEK cells were blocked by GPR142 RNAi.
1) 5×10^4 cells/well of NHEK cells (Invitrogen) were plated on a 24-well plate. Then, 500 μl of a culture medium containing a medium for proliferating normal human epidermal keratinocytes (HuMedia-KG2, KURABO INDUSTRIES LTD.) supplemented with hEGF (0.1 ng/ml), insulin (10 μg/ml), hydrocortisone (0.5 μg/ml), gentamycin (50 μg/ml), amphotericin B (50 ng/ml), and bovine brain pituitary extract (BPE) (0.4%, v/v) were added to the plate, and the cells were cultured under the conditions of 37° C. and 5% CO2.
2) After culture under the conditions of the step 1) for 1 day, the medium was exchanged for the culture medium of the step 1) to which CaCl2 (1.2 mM in terms of Ca) was further added as Ca, and culture was conducted under the conditions of 37° C. and 5% CO2. After culture for 1 day, the medium was exchanged for the same culture medium containing Ca, and culture was further conducted for 1 day.
3) The NHEK cells of the step 2) were transfected with 50 nM of siRNA per well of the 24-well plate by using a transfection reagent, Lipofectamine RNA Max (Invitrogen) according to the manufacturer's protocol.
The sequences of the used three kinds of GPR142 siRNAs and the sequences of the used control siRNAs (all the siRNAs are manufactured by Invitrogen) are described below.
4) After culture for 1 day after the transfection with siRNA in the step 3), the medium was exchanged for the culture medium of the step 1) to which a DMSO solution of Compound 1 was added at 10 nM per well, and culture was further conducted for 1 day. As a control, a solvent only (vehicle) was added.
5) An extraction reagent (TRIzol™, Invitrogen) was used, and according to the manufacturer's protocol, total RNA was extracted from each of cells treated with the medicament. A reverse transcriptase reagent (Prime Script™, Takara) was used, and according to the manufacturer's protocol, cDNA was prepared from the total RNA. Next, real-time PCR was conducted by using the following primers and SYBR™ Premix Ex Taq (Takara) with a CFX96 real-time PCR instrument according to the manufacturer's protocol, and the amounts of GPR142 mRNA and FLG mRNA expression were measured. The result of measurement is shown as a GAPDH ratio.
In this example, it was confirmed that the expression-inducing effects of Compound 2 or 3 on GPR142 mRNA and FLG mRNA in NHEK cells were blocked by GPR142 RNAi.
NHEK cells were transfected in the same manner as in Example 5 except that, in the steps 1) to 3) of Example 5, two kinds of GPR142 siRNAs and two kinds of control siRNAs, i.e., GPR142-1 (#HSS139493) and GPR142-3 (#HSS179846) and Control-1 (LOW GC, #129350-200), and Control-3 (HIGH GC, #129350-400) were used as GPR142 siRNAs and control siRNAs, respectively. After culture for 1 day after the transfection was conducted in the same manner as in the step 4) of Example 5, the medium was exchanged for the culture medium to which each of a DMSO solution of Compound 1, a DMSO solution of Compound 2, or a methanol solution of Compound 3 was added at 10 nM per well, and culture was further conducted for 1 day. As a control, a solvent only (vehicle) was added. Regarding each of cells treated with the medicament, real-time PCR was conducted to measure the amounts of GPR142 mRNA and FLG mRNA in the same manner as in the step 5) of Example 5. The results of the measurement are shown as a GAPDH ratio.

FLG monomer = FLG monomer in three-dimensional cultured skin, Western blotting (Example 11); format: cell-based, human; conditions: 1 μM, immunoblotting
Experimental: In this example, the expression-increasing effect of Compound 1 on FLG monomer was examined by using a three-dimensional cultured skin. The expression of the FLG monomer was confirmed by Western blotting.
In this example, the same procedures as those in the steps 1) to 3) of Example 10 were conducted. It should be noted that as a medicament, D) Comparative Compound 3 (M344) was used, as well as A) Compound 1 and C) Comparative Compound 2 of Example 10.
4) The three-dimensional cultured skin obtained in the same manner as in the steps 1) to 3) of Example 10 was recovered, and was cut into pieces with scissors. Then, 100 μl of Lysis buffer (0.1 M Tris-HCl (pH 9.0), 6 M Urea, 1% 2-mercapto-ethanol, 1% SDS, 1 mM EDTA, and Protease inhibitor cocktail) were added and the cells were homogenized with an electrically powered pestle. The homogenized cells were centrifuged at 15,000 rpm at 4° C. for 20 minutes, and the supernatant was recovered to be used as a sample for measurement. The total protein in the sample was quantified by using a protein assay reagent (Bio-Rad Laboratories, Inc.) according to the manufacturer's protocol. The protein was adjusted so that each sample contained 15 μg protein/lane, and the samples were subjected to electrophoresis by SDS-PAGE (Invitrogen, NuPAE Novex Bis-Tris mini Gel 4 to 12%) under the conditions of 100 V and 2 hours. As a marker, Precision Plus Protein Standards (Bio-Rad Laboratories, Inc.) was used. The proteins separated by the electrophoresis were transferred to a PVDF membrane (blotting), and the expression of FLG monomer was confirmed by using an anti-FLG antibody (Filaggrin AKH1, Santa Crus). At that time, Anti-mouse IgG-HRP (GE Healthcare) was used as a secondary antibody, and Amersham ECL Plus Western Blotting Detection Reagents (GE Healthcare) was used as a color developer.

[1] = calcium priming, siRNA 50 nM, Compound 1 10 nM

| Compound | induction of FLG mRNA expression: dependence on GPR142 (GPR142) | FLG mRNA expression in the presence of GPR142 siRNA (GPR142; [1]) | GPR142 mRNA expression in the presence of GPR142 siRNA (GPR142; [1]) | production of FLG monomer (FLG monomer) | production of pro-FLG (FLG monomer) |
| --- | --- | --- | --- | --- | --- |
| CCc1ccc(OCc2ccccc2C(=O)Nc2ccc3nc(C)cc(N)c3c2)cc1.Cl [Compound 1, N-(4-Amino-2-methyl-6-quinolyl)-2-[(4-ethylphenoxy)methyl]benzamide hydrochloride] | mediated by GPR142 | suppressed by GPR142 siRNA | suppressed by GPR142 siRNA | clear production of FLG monomer was confirmed | production of a large amount of pro-FLG |
| O=C(CCCCCN1C(=O)c2cccc3cccc(c23)C1=O)NO [Comparative Compound 2, 6-(1,3-Dioxo-1H,3H-benzo[de]isoquinolin-2-yl)hexanoic acid hydroxyamide, reference compound] | – | – | – | clear production of FLG monomer was not observed | – |
| CC[C@H](C)[C@H]1O[C@]2(CC[C@@H]1C)C[C@@H]1C[C@@H](C/C=C(\C)[C@@H](O[C@H]3C[C@H](OC)[C@@H](O[C@H]4C[C@H](OC)[C@@H](O)[C@H](C)O4)[C@H](C)O3)[C@@H](C)/C=C/C=C3\CO[C@@H]4[C@H](O)C(C)=C[C@@H](C(=O)O1)[C@]34O)O2 [Compound 2, Ivermectin, reference compound] | mediated by GPR142 | – | – | – | – |
